Laboratory results as given in US20220386606A1, “SPECIFICALLY SUBSTITUTED 3-PHENYL-5-SPIROCYCLOPENTYL-3-PYRROLIN-2-ONES AND THEIR USE AS HERBICIDES” (Bayer Aktiengesellschaft, priority 2019, published 2022).

Tests used:
ALOMY [1] = assay: Pre-emergence herbicidal action against ALOMY; assay type: in vivo, Alopecurus myosuroides; conditions: 320 g/ha, scored visually after 3 weeks vs untreated controls
Description: (§1) Seeds of monocotyledonous and dicotyledonous weed plants and crop plants are laid out in sandy loam soil in wood-fiber pots and covered with soil. The compounds of the invention, formulated in the form of wettable powders (WP) or as emulsion concentrates (EC), are then applied to the surface of the covering soil as aqueous suspension or emulsion at a water application rate equating to 600 to 800 L/ha with addition of 0.2% wetting agent.
(§2) After the treatment, the pots are placed in a greenhouse and kept under good growth conditions for the trial plants. The damage to the test plants is scored visually after a test period of 3 weeks by comparison with untreated controls (herbicidal activity in percent (%): 100% activity=the plants have died, 0% activity=like control plants).

AVEFA [2] = assay: Pre-emergence herbicidal action against AVEFA; assay type: in vivo, Avena fatua; conditions: 320 g/ha, scored visually after 3 weeks vs untreated controls
Description: as §1, §2

DIGSA [3] = assay: Pre-emergence herbicidal action against DIGSA; assay type: in vivo, Digitaria sanguinalis; conditions: 320 g/ha, scored visually after 3 weeks vs untreated controls
Description: as §1, §2

ECHCG [4] = assay: Pre-emergence herbicidal action against ECHCG; assay type: in vivo, Echinochloa crus-galli; conditions: 320 g/ha, scored visually after 3 weeks vs untreated controls
Description: as §1, §2

LOLRI [5] = assay: Pre-emergence herbicidal action against LOLRI (Table 8, titled post-emergence at 320 g/ha); assay type: in vivo, Lolium rigidum; conditions: table stands in the pre-emergence section
Description: as §1, §2

SETVI [6] = assay: Pre-emergence herbicidal action against SETVI; assay type: in vivo, Setaria viridis; conditions: 320 g/ha, scored visually after 3 weeks vs untreated controls
Description: as §1, §2

AMARE = assay: Pre-emergence herbicidal action against AMARE; assay type: in vivo, Amaranthus retroflexus; conditions: 320 g/ha
Description: as §1, §2

VIOTR = assay: Pre-emergence herbicidal action against VIOTR; assay type: in vivo, Viola tricolor; conditions: 320 g/ha
Description: as §1, §2

ALOMY [7] = assay: Post-emergence herbicidal action against ALOMY; assay type: in vivo, Alopecurus myosuroides; conditions: 80 g/ha, visual assessment after about 3 weeks
Method: (§3) Seeds of monocotyledonous and dicotyledonous weed and crop plants are laid out in sandy loam soil in wood-fiber pots, covered with soil and cultivated in a greenhouse under good growth conditions. 2 to 3 weeks after sowing, the test plants are treated at the one-leaf stage. The compounds of the invention, formulated in the form of wettable powders (WP) or as emulsion concentrates (EC), are then sprayed onto the green parts of the plants as aqueous suspension or emulsion at a water application rate equating to 600 to 800 l/ha with addition of 0.2% wetting agent. After the test plants have been left to stand in the greenhouse under optimal growth conditions for about 3 weeks, the action of the preparations is assessed visually in comparison to untreated controls (herbicidal action in percent (%): 100% activity=the plants have died, 0% activity=like control plants).

DIGSA [8] = assay: Post-emergence herbicidal action against DIGSA; assay type: in vivo, Digitaria sanguinalis; conditions: 80 g/ha, visual assessment about 3 weeks after treatment vs untreated controls
Method: as §3

ECHCG [9] = assay: Post-emergence herbicidal action against ECHCG; assay type: in vivo, Echinochloa crus-galli; conditions: 80 g/ha, visual assessment about 3 weeks after treatment vs untreated controls
Method: as §3

SETVI [10] = assay: Post-emergence herbicidal action against SETVI; assay type: in vivo, Setaria viridis; conditions: 80 g/ha, visual assessment about 3 weeks after treatment vs untreated controls
Method: as §3

VERPE = assay: Pre-emergence herbicidal action against VERPE; assay type: in vivo, Veronica persica; conditions: 320 g/ha
Description: as §1, §2

AVEFA [11] = assay: Post-emergence herbicidal action against AVEFA; assay type: in vivo, Avena fatua; conditions: 80 g/ha, visual assessment after about 3 weeks
Method: as §3

LOLRI [12] = assay: Post-emergence herbicidal action against LOLRI; assay type: in vivo, Lolium rigidum; conditions: 80 g/ha, visual assessment about 3 weeks after treatment vs untreated controls
Method: as §3

Structure (SMILES)	Pre-emergence action against ALOMY in % (ALOMY [1])	Pre-emergence action against AVEFA in % (AVEFA [2])	Pre-emergence action against DIGSA in % (DIGSA [3])	Pre-emergence action against ECHCG in % (ECHCG [4])	Pre-emergence herbicidal action against LOLRI in % (LOLRI [5])	Pre-emergence action against SETVI in % (SETVI [6])	Pre-emergence action against AMARE in % (AMARE)	Pre-emergence action against VIOTR in % (VIOTR)	Post-emergence action against ALOMY in % (ALOMY [7])	Post-emergence action against DIGSA in % (DIGSA [8])	Post-emergence action against ECHCG in % (ECHCG [9])	Post-emergence action against SETVI in % (SETVI [10])	Pre-emergence action against VERPE in % (VERPE)	Post-emergence action against AVEFA in % (AVEFA [11])	Post-emergence action against LOLRI in % (LOLRI [12])
CC#Cc1cc(C)c(C2=C(O)C3(CCC(COCC)C3)NC2=O)c(Br)c1 (stereo not drawn) [Example I-21]	100%	100%	100%	100%	100%	100%	100%	100%	100%	100%	100%	100%	–	–	–
CC#Cc1cc(Br)c(C2=C(O)C3(CCC(COCC)C3)NC2=O)c(CC)c1 (stereo not drawn) [Example I-24]	–	–	–	–	–	–	–	–	–	–	–	–	80%	–	–
CC#Cc1cc(C)c(C2=C(O)C3(CCC(COCCOC)C3)NC2=O)c(OC)c1 (stereo not drawn) [Example I-52]	100%	100%	100%	100%	100%	100%	80%	80%	100%	–	100%	100%	–	90%	90%
CC#Cc1cc(C)c(C2=C(OC(=O)C(C)C)C3(CCC(COCC)C3)NC2=O)c(Br)c1 (stereo not drawn) [Example P-36]	100%	80%	100%	90%	100%	100%	–	100%	100%	90%	90%	100%	80%	–	–
CC#Cc1cc(C)c(C2=C(OC(=O)C(C)C)C3(CCC(COC)C3)NC2=O)c(OC)c1 (stereo not drawn) [Example P-46]	100%	100%	100%	100%	100%	100%	100%	100%	100%	100%	100%	100%	–	90%	100%
CC#Cc1cc(C)c(C2=C(OC(=O)OCC)C3(CCC(COC)C3)NC2=O)c(OC)c1 (stereo not drawn) [Example P-47]	100%	100%	100%	100%	–	100%	100%	100%	100%	100%	100%	100%	–	90%	100%
CC#Cc1cc(C)c(C2=C(OC(=O)OCC)C3(CCC(COCC)C3)NC2=O)c(OC)c1 (stereo not drawn) [Example P-48]	100%	100%	100%	100%	100%	100%	–	100%	100%	100%	100%	100%	80%	90%	100%
CC#Cc1cc(C)c(C2=C(OC(=O)C(C)C)C3(CCC(COC)C3)NC2=O)c(F)c1 (stereo not drawn) [Example P-57]	100%	80%	100%	100%	100%	100%	80%	100%	100%	100%	100%	100%	–	90%	100%
CC#Cc1cc(F)c(C2=C(OC(=O)OCC)C3(CCC(COCC)C3)NC2=O)c(OC)c1 (stereo not drawn) [Example P-69]	100%	80%	100%	100%	100%	100%	–	80%	100%	80%	100%	100%	90%	90%	90%
C=CCOCC1CCC2(C1)NC(=O)C(c1c(F)cc(C#CC)cc1OC)=C2OC(=O)OCC (stereo not drawn) [Example P-77]	100%	90%	100%	100%	100%	100%	–	100%	90%	80%	100%	100%	80%	–	–
CC#Cc1cc(C)c(C2=C(OC(=O)OCC)C3(CCC(COCCC)C3)NC2=O)c(OC)c1 (stereo not drawn) [Example P-83]	100%	80%	100%	100%	100%	100%	–	90%	100%	100%	100%	100%	80%	90%	100%
C=CCOCC1CCC2(C1)NC(=O)C(c1c(C)cc(C#CC)cc1Br)=C2OC(=O)OCC (stereo not drawn) [Example P-85]	100%	80%	100%	100%	100%	100%	–	100%	80%	90%	100%	100%	90%	–	90%
C#CCOCC1CCC2(C1)NC(=O)C(c1c(F)cc(C#CC)cc1OC)=C2OC(=O)OCC (stereo not drawn) [Example P-102]	100%	80%	100%	100%	100%	100%	90%	–	90%	90%	80%	90%	–	80%	90%
